Legend:
[1] = target: apurinic/apyrimidinic endonuclease (APE1) (Homo sapiens, UniProt P27695); test: APE1 counter-screen gel-based assay; type: biochemical; settings: up to 100 μM
[2] = target: T1, human Top1 (Homo sapiens, UniProt P11387); test: Top1 DNA relaxation counter-screen assay; type: biochemical; settings: up to 100 μM
T1 sequence (P11387 1-765): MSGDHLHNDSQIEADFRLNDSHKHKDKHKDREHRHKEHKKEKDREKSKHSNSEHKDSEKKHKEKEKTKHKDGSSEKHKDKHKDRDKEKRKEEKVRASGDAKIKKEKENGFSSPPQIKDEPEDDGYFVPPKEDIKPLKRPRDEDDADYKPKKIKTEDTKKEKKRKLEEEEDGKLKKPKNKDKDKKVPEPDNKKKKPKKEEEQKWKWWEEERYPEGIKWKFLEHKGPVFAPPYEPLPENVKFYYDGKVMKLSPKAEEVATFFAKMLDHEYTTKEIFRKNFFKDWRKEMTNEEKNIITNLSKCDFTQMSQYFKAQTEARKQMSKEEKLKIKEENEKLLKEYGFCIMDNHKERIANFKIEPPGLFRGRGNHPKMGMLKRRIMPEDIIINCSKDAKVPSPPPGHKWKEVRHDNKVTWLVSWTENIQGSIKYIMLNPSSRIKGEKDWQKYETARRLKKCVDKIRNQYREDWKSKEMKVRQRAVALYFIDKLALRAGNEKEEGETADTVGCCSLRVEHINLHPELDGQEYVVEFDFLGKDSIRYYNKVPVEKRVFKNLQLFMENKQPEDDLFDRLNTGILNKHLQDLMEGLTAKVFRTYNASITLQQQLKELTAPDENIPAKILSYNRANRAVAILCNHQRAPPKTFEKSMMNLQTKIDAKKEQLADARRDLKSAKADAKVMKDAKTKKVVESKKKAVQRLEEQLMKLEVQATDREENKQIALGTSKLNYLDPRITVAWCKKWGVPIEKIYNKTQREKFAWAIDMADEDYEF

[3] = target: T2, recombinant Tdp1 (Homo sapiens, UniProt Q9NUW8); test: Surface plasmon resonance direct binding; settings: ten successive 2-fold dilutions from 100 μM
[4] = target: Tdp1 H493R (SCAN1 mutant) (Homo sapiens, UniProt Q9NUW8, H493R); test: SCAN1 mutant gel assay of Tdp1-DNA covalent complex formation; type: biochemical; settings: 100 nM H493R; DNA sequencing and protein SDS-PAGE gels
[5] = test system: HCT116 cells; test: Cellular studies alone and in combination with CPT; type: cell-based; settings: data not shown
[6] = test system: CPT-induced Top1-DNA cleavage complexes; test: Immunocomplex of enzyme; type: cell-based; settings: data not shown
[7] = test system: Tdp1; settings: NCI-DTP diversity set screen; ref [31]; cited from earlier work
[8] = target: T2, recombinant Tdp1; test: Tdp1 gel-based assay; type: biochemical; settings: single-stranded N14Y substrate
[9] = test system: Tdp1; settings: ref [28], [29]; cited from earlier work

T2 sequence (Q9NUW8 whole entry): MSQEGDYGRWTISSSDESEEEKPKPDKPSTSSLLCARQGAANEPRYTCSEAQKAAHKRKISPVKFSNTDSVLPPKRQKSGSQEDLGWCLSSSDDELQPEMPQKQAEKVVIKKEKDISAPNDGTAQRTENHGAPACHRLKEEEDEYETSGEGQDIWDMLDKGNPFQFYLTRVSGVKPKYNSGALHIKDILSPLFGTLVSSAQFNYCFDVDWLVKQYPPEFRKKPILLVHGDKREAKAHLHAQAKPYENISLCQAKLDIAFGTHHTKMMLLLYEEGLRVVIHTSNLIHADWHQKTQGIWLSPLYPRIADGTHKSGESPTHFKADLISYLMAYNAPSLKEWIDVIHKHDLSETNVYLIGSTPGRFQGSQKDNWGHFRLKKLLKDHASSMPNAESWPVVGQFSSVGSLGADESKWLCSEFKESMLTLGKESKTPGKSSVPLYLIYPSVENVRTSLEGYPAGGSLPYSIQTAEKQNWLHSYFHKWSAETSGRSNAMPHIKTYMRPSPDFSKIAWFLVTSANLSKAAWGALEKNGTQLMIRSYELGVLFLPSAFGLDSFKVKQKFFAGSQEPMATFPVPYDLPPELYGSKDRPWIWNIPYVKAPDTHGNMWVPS
Chain of Tdp1 H493R (SCAN1 mutant) (Q9NUW8 whole entry H493R): as the sequence (Q9NUW8 whole entry) above, with H493R counted along it
Chain of apurinic/apyrimidinic endonuclease (APE1) (P27695 whole entry): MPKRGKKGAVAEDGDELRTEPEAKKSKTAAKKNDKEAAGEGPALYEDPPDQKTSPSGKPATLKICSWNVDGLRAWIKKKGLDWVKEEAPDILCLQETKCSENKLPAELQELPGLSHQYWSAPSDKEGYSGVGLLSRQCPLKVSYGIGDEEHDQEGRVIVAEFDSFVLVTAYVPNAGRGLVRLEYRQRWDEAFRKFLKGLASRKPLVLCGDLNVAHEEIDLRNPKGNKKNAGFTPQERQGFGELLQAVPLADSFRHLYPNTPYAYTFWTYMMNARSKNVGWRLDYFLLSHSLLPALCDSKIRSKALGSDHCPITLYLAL

C[C@]12CC[C@H]3[C@@H](CCC4=CC(=O)CC[C@@]43C)[C@@H]1CC[C@@H]2C(=O)COS(=O)(=O)c1ccc(Br)cc1 [compound 1, 4-Pregnen-21-ol-3,20-dione-21-(4-bromobenzenesufonate)]
inhibition of APE1 [1]: No evidence for inhibition | inhibition of human Top1 (DNA relaxation) [2]: No evidence for inhibition | binding to surface-bound Tdp1 (SPR) [3]: direct binding | formation of Tdp1-DNA covalent complexes by H493R mutant [4]: concentration-dependent decrease | effect in combination with camptothecin in HCT116 cells [5]: only an additive effect | activity by itself in HCT116 cells ([5]; up to 25 μM): limited activity | enhancement of CPT-induced Top1-DNA cleavage complexes [6]: did not observe an enhancement | inhibitory activity against Tdp1 in high-throughput screen [7]: low micromolar concentrations

C[C@]12CC[C@H]3[C@@H](CCC4=CC(=O)CC[C@@]43C)[C@@H]1CC[C@@H]2C(=O)COS(C)(=O)=O [compound 7]
Tdp1 inhibitory activity (in words) [8]: minimally active | binding to surface-bound Tdp1 (SPR) [3]: No interaction

CC(=O)[C@H]1CC[C@H]2[C@@H]3CCC4=CC(=O)CC[C@]4(C)[C@H]3CC[C@]12C [progesterone, reference compound]
Tdp1 inhibitory activity (in words) [8]: weakly active

[O]=[W](=[O])([O-])[O-] [tungstate]
concentration at which Tdp1 is inhibited [9]: millimolar concentrations

[O]=[V]([O-])([O-])[O-] [vanadate]
concentration at which Tdp1 is inhibited [9]: millimolar concentrations
